Measurements: patent US6525001B1, “Substituted pyrimidine and pyridine herbicides” (Mid-American Commercialization Corporation, priority 1997, dated 2003)

What was measured:
Type in all cases: in vivo
Set-up in all cases: key: 0 is no effect; 10 is complete control
[1] = system: wheat (Triticum aestivum); assay: Test B pre-/postemergence
From the text: (§1) Seeds of bedstraw (Galium aparine), blackgrass (Alopecurus myosuroides), broadleaf signalgrass (Brachiaria decumbens), cocklebur (Xanthium strumarium), corn (Zea mays), crabgrass (Digitaria sanguinalis), giant foxtail (Setaria faberii), lambsquarters (Chenopodium album), momingglory (Ipomoea hederacea), pigweed (Amaranthus retroflexus), rape (Brassica napus), soybean (Glycine max), sugar beet (Beta vulgaris), velvetleaf (Abutilon theophrasti), wheat (Triticum aestivum), wild oat (Avena fatua) and purple nutsedge (Cyperus rotundus) tubers were planted and treated preemergence with test chemicals formulated in a non-phytotoxic solvent mixture which included a surfactant.
(§2) At the same time, these crop and weed species were also treated with postemergence applications of test chemicals formulated in the same manner. Plants ranged in height from 2 to 18 cm (1- to 4-leaf stage) for postemergence treatments. Plant species in the flood test consisted of rice (Oryza sativa), smallflower flatsedge (Cyperus difformis), duck salad (Heteranthera limosa) and bamyardgrass (Echinochloa crus-galli) grown to the 2-leaf stage for testing. Treated plants and controls were maintained in a greenhouse for twelve to sixteen days, after which all species were compared to controls and visually evaluated. Plant response ratings, summarized in Table B, are based on a scale of 0 to 10 where 0 is no effect and 10 is complete control. A dash (−) response means no test result.

[2] = system: giant foxtail (Setaria faberii); assay: Test B pre-/postemergence; conditions: for Plant response rating, Giant foxtail: Postemergence; for Giant foxtail plant response rating: Preemergence
From the text: as §1, §2

[3] = system: momingglory (Ipomoea hederacea); assay: Test B pre-/postemergence
From the text: as §1, §2

soybean (Glycine max) = assay: Test B pre-/postemergence
From the text: as §1, §2

[4] = system: blackgrass (Alopecurus myosuroides); assay: Test B pre-/postemergence
From the text: as §1, §2

[5] = system: pigweed (Amaranthus retroflexus); assay: Test B pre-/postemergence
From the text: as §1, §2

[6] = system: bedstraw (Galium aparine); assay: Test B pre-/postemergence
From the text: as §1, §2

rape (Brassica napus) = assay: Test B pre-/postemergence
From the text: as §1, §2

wild oat (Avena fatua) = assay: Test B pre-/postemergence
From the text: as §1, §2

[7] = system: sugar beet (Beta vulgaris); assay: Test B pre-/postemergence
From the text: as §1, §2

[8] = system: cocklebur (Xanthium strumarium); assay: Test B pre-/postemergence
From the text: as §1, §2

[9] = system: velvetleaf (Abutilon theophrasti); assay: Test B pre-/postemergence
From the text: as §1, §2

[10] = system: purple nutsedge (Cyperus rotundus); assay: Test B pre-/postemergence
From the text: as §1, §2

[11] = system: broadleaf signalgrass (Brachiaria decumbens); assay: Test B pre-/postemergence
From the text: as §1, §2

corn (Zea mays) = assay: Test B pre-/postemergence
From the text: as §1, §2

[12] = system: crabgrass (Digitaria sanguinalis); assay: Test B pre-/postemergence
From the text: as §1, §2

rice (Oryza sativa) = assay: Test B flood test
In short: (§3)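 Plants were grown to the 2-leaf stage before treatment with test chemical, then held in a greenhouse for twelve to sixteen days. Injury was visually rated against untreated controls on a 0–10 scale, where 0 is no effect and 10 is complete control.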

[13] = system: bamyardgrass (Echinochloa crus-galli); assay: Test B flood test
In short: as §3

[14] = system: smallflower flatsedge (Cyperus difformis); assay: Test B flood test
In short: as §3

[15] = system: duck salad (Heteranthera limosa); assay: Test B flood test
In short: as §3

[16] = Rate 62 g/ha, Postemergence (flood test)
[17] = Rate 125 g/ha, Postemergence, flood test
[18] = Rate 250 g/ha, Postemergence (flood test species)

## COC(=O)C(c1cccc(C(F)(F)F)c1)c1nc(-c2ccc(C(F)(F)F)cc2)ncc1C (racemic) [Compound 18]
[1]; Rate 62 g/ha, Postemergence
  Plant response rating, Wheat: 1
[1]; Rate 62 g/ha, Preemergence
  Wheat plant response rating: 0
[1]; Rate 125 g/ha, Postemergence
  Plant response rating, Wheat: 3
[1]; Rate 125 g/ha, Preemergence
  Wheat plant response rating: 0
[1]; Rate 250 g/ha, Postemergence
  Plant response rating, Wheat: 3
[1]; Rate 250 g/ha, Preemergence
  Plant response rating, Wheat: 0
[2]; Rate 62 g/ha
  Plant response rating, Giant foxtail: 1
  Giant foxtail plant response rating: 0
[2]; Rate 125 g/ha
  Plant response rating, Giant foxtail: 1
  Giant foxtail plant response rating: 0
[2]; Rate 250 g/ha
  Plant response rating, Giant foxtail: 1
[3]; Rate 62 g/ha, Postemergence
  Plant response rating, Morningglory: 3
[3]; Rate 62 g/ha, Preemergence
  Morningglory plant response rating: 1
[3]; Rate 125 g/ha, Postemergence
  Plant response rating, Morningglory: 8
[3]; Rate 125 g/ha, Preemergence
  Morningglory plant response rating: 4
[3]; Rate 250 g/ha, Postemergence
  Plant response rating, Morningglory: 8
[3]; Rate 250 g/ha, Preemergence
  Plant response rating, Morningglory: 6
Soybean (Glycine max); Rate 62 g/ha, Postemergence
  Plant response rating, Soybean: 3
Soybean (Glycine max); Rate 62 g/ha, Preemergence
  Soybean plant response rating: 0
Soybean (Glycine max); Rate 125 g/ha, Postemergence
  Plant response rating, Soybean: 4
Soybean (Glycine max); Rate 125 g/ha, Preemergence
  Soybean plant response rating: 0
Soybean (Glycine max); Rate 250 g/ha, Postemergence
  Plant response rating, Soybean: 6
Soybean (Glycine max); Rate 250 g/ha, Preemergence
  Plant response rating, Soybean: 0
[4]; Rate 62 g/ha, Postemergence
  Plant response rating, Blackgrass: 2
[4]; Rate 62 g/ha, Preemergence
  Blackgrass plant response rating: 0
[4]; Rate 125 g/ha, Postemergence
  Plant response rating, Blackgrass: 2
[4]; Rate 125 g/ha, Preemergence
  Blackgrass plant response rating: 0
[4]; Rate 250 g/ha, Postemergence
  Plant response rating, Blackgrass: 2
[4]; Rate 250 g/ha, Preemergence
  Plant response rating, Blackgrass: 1
[5]; Rate 62 g/ha, Postemergence
  Plant response rating, Redroot pigweed: 6
[5]; Rate 62 g/ha, Preemergence
  Redroot pigweed plant response rating: 0
[5]; Rate 125 g/ha, Postemergence
  Plant response rating, Redroot pigweed: 6
[5]; Rate 125 g/ha, Preemergence
  Redroot pigweed plant response rating: 3
[5]; Rate 250 g/ha, Postemergence
  Plant response rating, Redroot pigweed: 9
[5]; Rate 250 g/ha, Preemergence
  Plant response rating, Redroot pigweed: 7
[6]; Rate 62 g/ha, Postemergence
  Plant response rating, Bedstraw: 7
[6]; Rate 62 g/ha, Preemergence
  Bedstraw plant response rating: 0
[6]; Rate 125 g/ha, Postemergence
  Plant response rating, Bedstraw: 8
[6]; Rate 125 g/ha, Preemergence
  Bedstraw plant response rating: 2
[6]; Rate 250 g/ha, Postemergence
  Plant response rating, Bedstraw: 9
[6]; Rate 250 g/ha, Preemergence
  Plant response rating, Bedstraw: 5
Rape (Brassica napus); Rate 62 g/ha, Postemergence
  Plant response rating, Rape: 4
Rape (Brassica napus); Rate 62 g/ha, Preemergence
  Rape plant response rating: 0
Rape (Brassica napus); Rate 125 g/ha, Postemergence
  Plant response rating, Rape: 7
Rape (Brassica napus); Rate 125 g/ha, Preemergence
  Rape plant response rating: 0
Rape (Brassica napus); Rate 250 g/ha, Postemergence
  Plant response rating, Rape: 9
Rape (Brassica napus); Rate 250 g/ha, Preemergence
  Plant response rating, Rape: 0
Wild oat (Avena fatua); Rate 62 g/ha, Postemergence
  Plant response rating, Wild oats: 3
Wild oat (Avena fatua); Rate 62 g/ha, Preemergence
  Wild oats plant response rating: 2
Wild oat (Avena fatua); Rate 125 g/ha, Postemergence
  Plant response rating, Wild oats: 5
Wild oat (Avena fatua); Rate 125 g/ha, Preemergence
  Wild oats plant response rating: 3
Wild oat (Avena fatua); Rate 250 g/ha, Postemergence
  Plant response rating, Wild oats: 5
Wild oat (Avena fatua); Rate 250 g/ha, Preemergence
  Plant response rating, Wild oats: 5
[7]; Rate 62 g/ha, Postemergence
  Plant response rating, Sugarbeets: 7
[7]; Rate 62 g/ha, Preemergence
  Sugarbeets plant response rating: 3
[7]; Rate 125 g/ha, Postemergence
  Plant response rating, Sugarbeets: 7
[7]; Rate 125 g/ha, Preemergence
  Sugarbeets plant response rating: 6
[7]; Rate 250 g/ha, Postemergence
  Plant response rating, Sugarbeets: 9
[7]; Rate 250 g/ha, Preemergence
  Plant response rating, Sugarbeets: 6
[8]; Rate 62 g/ha, Postemergence
  Plant response rating, Cocklebur: 6
[8]; Rate 125 g/ha, Postemergence
  Plant response rating, Cocklebur: 7
[8]; Rate 250 g/ha, Postemergence
  Plant response rating, Cocklebur: 8
[8]; Rate 250 g/ha, Preemergence
  Plant response rating, Cocklebur: 0
[9]; Rate 62 g/ha, Postemergence
  Plant response rating, Velvetleaf: 5
[9]; Rate 62 g/ha, Preemergence
  Velvetleaf plant response rating: 0
[9]; Rate 125 g/ha, Postemergence
  Plant response rating, Velvetleaf: 6
[9]; Rate 125 g/ha, Preemergence
  Velvetleaf plant response rating: 0
[9]; Rate 250 g/ha, Postemergence
  Plant response rating, Velvetleaf: 7
[9]; Rate 250 g/ha, Preemergence
  Plant response rating, Velvetleaf: 0
[10]; Rate 62 g/ha, Postemergence
  Plant response rating, Nutsedge: 0
[10]; Rate 62 g/ha, Preemergence
  Nutsedge plant response rating: 0
[10]; Rate 125 g/ha, Postemergence
  Plant response rating, Nutsedge: 0
[10]; Rate 125 g/ha, Preemergence
  Nutsedge plant response rating: 0
[10]; Rate 250 g/ha, Postemergence
  Plant response rating, Nutsedge: 0
[10]; Rate 250 g/ha, Preemergence
  Plant response rating, Nutsedge: 0
[11]; Rate 62 g/ha, Postemergence
  Plant response rating, B. signalgrass: 2
[11]; Rate 62 g/ha, Preemergence
  B. signalgrass plant response rating: 0
[11]; Rate 125 g/ha, Postemergence
  Plant response rating, B. signalgrass: 2
[11]; Rate 125 g/ha, Preemergence
  B. signalgrass plant response rating: 1
[11]; Rate 250 g/ha, Postemergence
  Plant response rating, B. signalgrass: 3
[11]; Rate 250 g/ha, Preemergence
  Plant response rating, B. signalgrass: 2
Corn (Zea mays); Rate 62 g/ha, Postemergence
  Plant response rating, Corn: 2
Corn (Zea mays); Rate 62 g/ha, Preemergence
  Corn plant response rating: 0
Corn (Zea mays); Rate 125 g/ha, Postemergence
  Plant response rating, Corn: 2
Corn (Zea mays); Rate 125 g/ha, Preemergence
  Corn plant response rating: 0
Corn (Zea mays); Rate 250 g/ha, Postemergence
  Plant response rating, Corn: 2
Corn (Zea mays); Rate 250 g/ha, Preemergence
  Plant response rating, Corn: 0
[12]; Rate 62 g/ha, Postemergence
  Plant response rating, Crabgrass: 1
[12]; Rate 62 g/ha, Preemergence
  Crabgrass plant response rating: 0
[12]; Rate 125 g/ha, Postemergence
  Plant response rating, Crabgrass: 2
[12]; Rate 125 g/ha, Preemergence
  Crabgrass plant response rating: 0
[12]; Rate 250 g/ha, Postemergence
  Plant response rating, Crabgrass: 3
[12]; Rate 250 g/ha, Preemergence
  Plant response rating, Crabgrass: 6
Rice (Oryza sativa); [16]
  Plant response rating, Rice: 1
Rice (Oryza sativa); [17]
  Plant response rating, Rice: 0
Rice (Oryza sativa); [18]
  Plant response rating, Rice: 0
[13]; [16]
  Plant response rating, Barnyardgrass: 2
[13]; [17]
  Plant response rating, Barnyardgrass: 1
[13]; [18]
  Plant response rating, Barnyardgrass: 2
[14]; [16]
  Plant response rating, S. Flatsedge: 9
[14]; [17]
  Plant response rating, S. Flatsedge: 1
[14]; [18]
  Plant response rating, S. Flatsedge: 2
[15]; [16]
  Plant response rating, Ducksalad: 1
[15]; [17]
  Plant response rating, Ducksalad: 2
[15]; [18]
  Plant response rating, Ducksalad: 2
